Test results reported in patent publication US11274324B2, “Engineering polyketide synthase in cyanobacteria” (The Regents of the University of California, priority 2019, dated 2022).

Tests used:
S. elongatus = settings: at low concentrations; previously reported; cited from earlier work
[1] = tested on: S. elongatus AMC2302 wild type; assay: Cell toxicity analysis of precursors; format: cell-based, Synechococcus elongatus; settings: final concentration of 1 mM; preliminary analyses, FIG. 12A
Method: FIGS. 12A-12B show cell toxicity analysis to determine the optimal concentration of precursors. FIG. 12A is an image showing cell growth after addition of substrate. Methylmalonate (me-malonate) and propionate were added to S. elongatus AMC2302 wild type at different concentrations: 0, 1, 5, 10, 15, and 20 mM. Each column is a duplicate of the experiment. FIG. 12B is an image showing cell growth after addition of substrate. n-octanol was added to S. elongatus AMC2302 wild type at different concentrations: 0.125, 0.25, 0.5, 1, 2, and 0 mM. Each column is a duplicate (FIG. 12A), or triplicate of the experiment (FIG. 12B).
While module I was constitutively expressed from Peonn (Elledge and Davis et al. 1989; Taton et al. 2014), the expression and activation of module III depended on the expression of the T7 RNAP and Sfp placed in downstream PconII and under the translational control of theophylline inducible riboswitches. The biosynthesis of methylmalonyl-CoA required methylmalonate (module IA) or propionate (module IC) as substrates, and the transesterification of the ACP-bound MBFA required an alcohol substrate (n-octanol) to produce MBE as the final product. Cell toxicity analysis with methylmalonate, propionate and n-octanol were carried out to determine the optimal concentration of these precursors. (FIG. 12). […]

[2] = tested on: S. elongatus recombinant strain MatB F pfm (module IIA); assay: Bioconversion assay, MBE production at different theophylline concentrations; format: cell-based, Synechococcus elongatus
Method: FIGS. 6A-6B show MBE biosynthesis by recombinant MatB F pfm and MatB B6 pfm cyanobacterial strains induced with different theophylline concentrations.
The two strains containing module IA (MatB) for methylmalonyl-CoA biosynthesis, modules IIA or IIB for T7 RNAP and Sfp expression, and module III for the Mas and accessory enzyme expression were analyzed. In addition, strains without the module III and a wild type strain were comprised as negative controls. For the bioconversion assays the strains were induced with theophylline 2 mM and 24 h later supplemented with 10 mM methylmalonate, 0.25 mM n-octanol and labeled with 2 μCi ^14C-acetate (58.9 mCi/mmol, PerkinElmer). After addition of the precursors the cultures were grown for 48 h, the in vivo synthesis of MBE was analyzed on total lipid extractions from each culture by TLC fractionation and autoradiography (FIGS. 3A-3B). Additional control bioconversion assays were carried out in the absence of either or both precursors, and labeled MBE synthesized by the E. coli strain RQ1 used as a standard (Menendez-Bravo et al. 2014). […]

[3] = tested on: theophylline dependent riboswitch F; assay: Inducible T7 expression system, PT7-YFP reporter fluorescence; format: cell-based, S. elongatus; settings: mutated PconII*
Method: (§1) FIGS. 2A-2B show characterization of inducible T7 expression systems in S. elongatus at different theophylline concentrations. The expression of the T7RNAP was driven by a mutated PconII* and was translationally controlled by riboswitch B (FIG. 2A) or riboswitch F (FIG. 2B). YFP fluorescence served as an easily readable output. Three independent strains were analyzed for each construct and error bars indicate standard deviations of the replicates.
(§2) To establish a functional and inducible T7RNAP based expression system for S. elongatus, devices were constructed where the transcription of the T7 RNA polymerase was driven by the conII promoter and its translation was controlled by either the theophylline dependent riboswitches B or F (Ma et al 2014). […] Thus, the potentiality of these regulatory devices when using a TRNAP expression system in S. elongatus was studied. Initially, the inventors constructed a reporter device in which the YFP reporter gene was driven by the PT7 and the T7RNAP expression was left under the control of a PconII-riboswitch (B or F). Both the T7RNAP expression systems and the reporter PT7-YFP were independently integrated at NS1 and NS2 of S. elongatus chromosome (Clerico et al 2007).

[4] = tested on: theophylline dependent riboswitch B; assay: as above; format: cell-based, S. elongatus; settings: mutated PconII*
Method: as §1, §2

SMILES	toxicity for S. elongatus (S. elongatus)	toxicity for S. elongatus [1]	effect on cell viability ([2]; 8 mM theophylline)	theophylline concentration reaching high levels of MBE production ([2]; module IIA, methylmalonate 10 mM, n-octanol 0.25 mM)	concentration of theophylline needed to reach maximal fluorescence [3]	concentration of theophylline needed to reach maximal fluorescence [4]
CCC(=O)O [propionate]	toxic	not toxic	–	–	–	–
Cn1c(=O)c2[nH]cnc2n(C)c1=O [theophylline]	–	–	detrimental to cell viability	4 mM	1 mM	2 mM
